A value given as a limit tells only on which side of the number the result lay.

One test concerns wild-type poliovirus. Format: cell-based. The note with it: HeLa cells infected with wild-type poliovirus at MOI 0.1, treated one day, CPE score; for WT-PV CPE (1 μM)*: 1 μM compound; for WT-PV CPE (10 μM)*: 10 μM compound; for WT-PV CPE (100 μM)*: 100 μM compound.
A further test deals with HCV replicon. Format: cell-based.

In the case of `CCn1c(-c2ccc(OC)cc2)c(C#N)c2ccc(OC)cc21` [Compound 19], in the test with wild-type poliovirus, the “WT-PV CPE (1 μM)*” value is reported as 1, the “WT-PV CPE (10 μM)*” value is 2 and the “WT-PV CPE (100 μM)*” value came out at 3.

In the case of `COc1ccc(-n2cc(C#N)c3ccc(OC)cc32)cc1` [Compound 4], in the test with wild-type poliovirus, the “WT-PV CPE (1 μM)*” value worked out at 1, the “WT-PV CPE (10 μM)*” value is recorded as 2 and the “WT-PV CPE (100 μM)*” value turned out to be 3.

Regarding `COc1ccc2c(C#N)c(C)n(-c3ccc4c(c3)OCO4)c2c1` [Compound 24], in the test on wild-type poliovirus, the “WT-PV CPE (1 μM)*” value is on record as 2, the “WT-PV CPE (10 μM)*” value came out at 2 and the “WT-PV CPE (100 μM)*” value stood at 3.

For `CCn1cc(C#N)c2ccc(OC(C)C)cc21` [Compound 10], in the test on wild-type poliovirus, the “WT-PV CPE (1 μM)*” value is on record as 2, the “WT-PV CPE (10 μM)*” value amounted to 2 and the “WT-PV CPE (100 μM)*” value turned out to be 3.

The term IC50 denotes the concentration at which inhibition is half-maximal. The low end stands for inhibition by little substance, the high end for a need for much substance. Turning to `CCOc1ccc2c(C#N)c(-c3ccc(NC(=O)OCCCCl)cc3)n(C3CCC3)c2c1` [Compound 977], in the test on HCV replicon, the 50% inhibitory concentration (IC50) is < 0.5 µM.

In turn, `COCCN(C)CCOc1ccc2c(C#N)c(-c3ccc(NC(=O)NC(C)C)cc3)n(C3CCC3)c2c1` [Compound 1321] came in with an IC50 in the test on HCV replicon of 0.5 to 2 µM.

Turning to `CC(C)NC(=O)Nc1ccc(-c2c(C#N)c3ccc(OCCNC4CC4)cc3n2C2CCC2)cc1` [Compound 1317], the IC50 in the test on HCV replicon was < 0.5 µM.

For `CCOc1ccc2c(C#N)c(-c3ccc(NC(=O)OC(C)C)cc3)n(C3CC3)c2c1` [Compound 1236], in the test with HCV replicon, the IC50 was < 0.5 µM.

With `CCOc1ccc2c(c1)c(C#N)c(-c1ccc(NC(=O)OC3CCC3)cc1)n2C1CCC1` [Compound 1292], the half-inhibitory concentration (IC50) in the test with HCV replicon is < 0.5 µM.

Turning to `CCn1c(-c2ccc(N3CCOC3=O)cc2)c(C#N)c2ccc(OCCCn3cncn3)cc21` [Compound 1084], the IC50 with HCV replicon lay in the range of 0.5 to 2 µM.

Turning to `CCn1c(-c2ccc(N3CCCS3(=O)=O)cc2)c(C#N)c2ccc(NC(=O)OC(C)(C)C)cc21` [Compound 1049], the IC50 with HCV replicon was < 0.5 µM.

In turn, `CCCOC(=O)Nc1ccc(-c2c(C#N)c3ccc(OC(F)(F)F)cc3n2CC)cc1` [Compound 889] returned an IC50 in the test on HCV replicon of 0.5 to 2 µM.

On to `CCCNC(=O)Nc1ccc(-c2c(C#N)c3cc(OC)ccc3n2CCC)cc1` [Compound 1000], for which the IC50 in the test on HCV replicon lay in the range of 0.5 to 2 µM.

Turning to `CCn1c(-c2ccc(NC(=O)C3CC3)cc2)c(C#N)c2ccc(OCCN(C)CCOC)cc21` [Compound 1091], in the test on HCV replicon, the IC50 is 0.5 to 2 µM.

As for `CC(C)NC(=O)Nc1ccc(-c2c(C#N)c3ccc(OCCN(C)C)cc3n2C2CCC2)cc1` [Compound 1319], the IC50 in the test with HCV replicon was < 0.5 µM.

On to `CCCCS(=O)(=O)Nc1ccc(-c2c(C#N)c3ccc(OCCF)cc3n2CC)cc1` [Compound 953], for which the IC50 in the test with HCV replicon was 0.5 to 2 µM.

Consider `CCCNC(=O)Nc1ccc(-c2c(C#N)c3ccc(OCc4cccnc4)cc3n2CC)cc1` [Compound 1185], for which the IC50 with HCV replicon is < 0.5 µM.

In the test on HCV replicon, `CCCS(=O)(=O)Nc1ccc(-c2c(C#N)c3cc(OC)ccc3n2C2CCC2)cc1` [Compound 1181] returned an IC50 of 0.5 to 2 µM.

`CCCOC(=O)Nc1ccc(-c2c(C#N)c3ccc(OC)cc3n2C2CCC2)cc1` [Compound 1074]: the IC50 in the test on HCV replicon lay in the range of 0.5 to 2 µM.

Take `N#Cc1c(-c2ccc(NC(=O)NC3CCCC3)cc2)n(C2CCC2)c2cc3c(cc12)OCO3` [Compound 1305]: in the test on HCV replicon, the IC50 is < 0.5 µM.

As to `CCOc1ccc2c(C#N)c(-c3ccc(NC(=O)Oc4ccc(OC)cc4)cc3)n(C3CCC3)c2c1` [Compound 978], in the test on HCV replicon, the IC50 was 0.5 to 2 µM.

`CCn1c(-c2ccc(N3CCCS3(=O)=O)cc2)c(C#N)c2ccc(C(F)(F)F)cc21` [Compound 969]: the half-inhibitory concentration (IC50) in the test with HCV replicon was < 0.5 µM.

On to `CCCN(c1ccc(-c2c(C#N)c3ccc(C(F)(F)F)cc3n2CC)cc1)S(=O)(=O)CC` [Compound 1007], for which the IC50 with HCV replicon was < 0.5 µM.

Regarding `CC(C)NC(=O)Nc1ccc(-c2c(C#N)c3ccc(OCCCN4CCCC4)cc3n2C2CCC2)cc1` [Compound 1309], in the test on HCV replicon, the IC50 is < 0.5 µM.

On to `CCOc1ccc2c(C#N)c(-c3ccc(NC(=O)OC4CCCC4)nc3)n(C3CCC3)c2c1` [Compound 1145], for which the IC50 with HCV replicon is 0.5 to 2 µM.

Take `CCN(C)CCOc1ccc2c(C#N)c(-c3ccc(NC(=O)NC(C)C)cc3)n(C3CCC3)c2c1` [Compound 1320]: in the test on HCV replicon, the IC50 is < 0.5 µM.
